Counter-ions that a name gives are not always drawn. Like-named read-outs stand apart in the source and are kept apart here.
What was measured:
[1] = molecular target: Bcl-2 protein (histag-Bcl-2, UniProtKB P10415) (Homo sapiens (Human), UniProt P10415); assay: Inhibition of Bcl-2 by the fluorescence polarisation technique; assay type: binding; conditions: incubation for 2 hours, read-out: IC50 (nM) Bcl-2 FP
Procedure, shortened: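 Fluorescence polarisation competition: His-tagged Bcl-2 (2.50×10^−8 M final) with fluorescein-labelled peptide (1.00×10^−8 M final) in 10 mM Hepes, 150 mM NaCl, 0.05% Tween20, pH 7.4. Increasing compound concentrations were added. Polarisation was read after 2 h incubation.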

[2] = test system: RS4;11 leukaemia tumour line; assay: In vitro cytotoxicity (Microculture Tetrazolium Assay); assay type: cell-based; conditions: RS4;11 cells, exposed for 48 hours, cell viability, read-out: IC50 (nM) MTT RS4;11
Experimental: The cytotoxicity studies were carried out on the RS4;11 leukaemia tumour line.
The cells are distributed onto microplates and exposed to the test compounds for 48 hours.
The cell viability is then quantified by a colorimetric assay, the Microculture Tetrazolium Assay (Cancer Res., 1987, 47, 939-942).

Bcl-2 protein, sequence (P10415 whole entry): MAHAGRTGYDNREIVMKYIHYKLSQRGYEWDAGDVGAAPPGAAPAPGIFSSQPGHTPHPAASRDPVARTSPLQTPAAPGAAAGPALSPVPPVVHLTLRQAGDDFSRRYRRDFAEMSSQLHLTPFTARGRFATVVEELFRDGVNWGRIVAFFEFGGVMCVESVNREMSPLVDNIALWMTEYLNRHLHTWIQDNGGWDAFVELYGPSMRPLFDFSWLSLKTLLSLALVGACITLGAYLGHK

SMILES	IC50 [1] [nM]	IC50 ([2]; Homo sapiens, RS4-11, 48 h) [nM]	IC50 [2] [nM]
CNCCn1c(-c2cc3c(cc2C(=O)N2Cc4ccccc4C[C@H]2C)OCO3)cc(C(=O)N(c2ccc(O)cc2)c2cnn(C)c2)c1C [Example 26, N-(4-Hydroxyphenyl)-2-methyl-1-[2-(methylamino)ethyl]-5-(6-{[(3R)-3-methyl-3,4-dihydroisoquinolin-2(1H)-yl]carbonyl}-1,3-benzodioxol-5-yl)-N-(1-methyl-1H-pyrazol-4-yl)-1H-pyrrole-3-carboxamide hydrochloride]	4.1	541	–
Cc1c(C(=O)N(c2ccc(O)cc2)c2cc(C#N)ccn2)cc(-c2cc(Cl)ccc2C(=O)N2Cc3ccccc3C[C@H]2CN2CCOCC2)n1C [Example 110, 5-(5-Chloro-2-{[(3S)-3-(morpholin-4-ylmethyl)-3,4-dihydroisoquinolin-2(1H)-yl]carbonyl}phenyl)-N-(4-cyanopyridin-2-yl)-N-(4-hydroxyphenyl)-1,2-dimethyl-1H-pyrrole-3-carboxamide hydrochloride]	8.5	39.5	–
Cc1c(C(=O)N(C)c2ccc(O)cc2)cc(-c2cc(CCNC(=O)NCc3ccccc3)ccc2C(=O)N2Cc3ccccc3C[C@H]2C)n1C [Example 56, 5-(5-{2-[(Benzylcarbamoyl)amino]ethyl}-2-{[(3R)-3-methyl-3,4-dihydroisoquinolin-2(1H)-yl]carbonyl}phenyl)-N-(4-hydroxyphenyl)-N,1,2-trimethyl-1H-pyrrole-3-carboxamide]	75	> 600	–
Cc1c(C(=O)N(c2ccc(O)cc2)c2cccc(F)c2)cc(-c2cc(Cl)ccc2C(=O)N2Cc3ccccc3C[C@H]2CN2CCOCC2)n1C [Example 34, 5-(5-Chloro-2-{[(3S)-3-(morpholin-4-ylmethyl)-3,4-dihydroisoquinolin-2(1H)-yl]carbonyl}phenyl)-N-(3-fluorophenyl)-N-(4-hydroxyphenyl)-1,2-dimethyl-1H-pyrrole-3-carboxamide hydrochloride]	8.2	47	–
CN1CCN(C[C@@H]2Cc3ccccc3CN2C(=O)c2ccc(Cl)cc2-c2cc(C(=O)N(c3ccc(O)cc3)c3ccc4c(ccn4C)c3)cn2C)CC1 [Example 5, 5-(5-Chloro-2-{[(3S)-3-[(4-methylpiperazin-1-yl)methyl]-3,4-dihydroisoquinolin-2(1H)-yl]carbonyl}phenyl)-N-(4-hydroxyphenyl)-1-methyl-N-(1-methyl-1H-indol-5-yl)-1H-pyrrole-3-carboxamide hydrochloride]	21.2	44.8	–
CCn1cc(C(=O)N(c2ccc(O)cc2)c2ccc3c(ccn3C)c2)cc1-c1cc(Cl)ccc1C(=O)N1Cc2ccccc2C[C@H]1CN1CCN(C)CC1 [Example 6, 5-(5-Chloro-2-{[(3S)-3-[(4-methylpiperazin-1-yl)methyl]-3,4-dihydroisoquinolin-2(1H)-yl]carbonyl}phenyl)-1-ethyl-N-(4-hydroxyphenyl)-N-(1-methyl-1H-indol-5-yl)-1H-pyrrole-3-carboxamide]	25.2	69	–
Cc1c(C(=O)N(c2ccc(O)cc2)c2cccc(F)c2)cc(-c2cc3c(cc2C(=O)N2Cc4ccccc4C[C@H]2C)OCO3)n1C [Example 41, N-(3-Fluorophenyl)-N-(4-hydroxyphenyl)-1,2-dimethyl-5-(6-{[(3R)-3-methyl-3,4-dihydroisoquinolin-2(1H)-yl]carbonyl}-1,3-benzodioxol-5-yl)-1H-pyrrole-3-carboxamide]	10	22.6	–
Cc1c(C(=O)N(c2ccc(O)cc2)c2cnc3c(c2)CCN3C)cc(-c2cc3c(cc2C(=O)N2Cc4ccccc4C[C@H]2CN2CCOCC2)OCO3)n1C [Example 49, N-(4-Hydroxyphenyl)-1,2-dimethyl-N-(1-methyl-2,3-dihydro-1H-pyrrolo[2,3-b]pyridin-5-yl)-5-(6-{[(3S)-3-(morpholin-4-ylmethyl)-3,4-dihydroisoquinolin-2(1H)-yl]carbonyl}-1,3-benzodioxol-5-yl)-1H-pyrrole-3-carboxamide dihyrochloride]	4	–	14.1
Cc1c(C(=O)N(c2ccc(O)cc2)c2ccc(C#N)s2)cc(-c2cc(Cl)ccc2C(=O)N2Cc3ccccc3C[C@H]2CN2CCOCC2)n1C [Example 436, 5-(5-Chloro-2-{[(3S)-3-(morpholin-4-ylmethyl)-3,4-dihydroisoquinolin-2(1H)-yl]carbonyl}phenyl)-N-(5-cyanothiophen-2-yl)-N-(4-hydroxyphenyl)-1,2-dimethyl-1H-pyrrole-3-carboxamide hydrochloride]	49.1	338	–
Cl.[2H]C([2H])([2H])n1cc(N(C(=O)c2cc(-c3cc(Cl)ccc3C(=O)N3Cc4ccccc4C[C@H]3CN3CCOCC3)n(C)c2C)c2ccc(O)cc2)cc1C#N [Example 448, 5-(5-Chloro-2-{[(3S)-3-(morpholin-4-ylmethyl)-3,4-dihydroisoquinolin-2(1H)-yl]carbonyl}phenyl)-N-[5-cyano-1-(trideuteriomethyl)-1H-pyrrol-3-yl]-N-(4-hydroxyphenyl)-1,2-dimethyl-1H-pyrrole-3-carboxamide hydrochloride]	2.4	12.1	–
Cc1c(C(=O)N(C)c2ccc(O)cc2)cc(-c2ccc(CNC(=O)COc3ccccc3)cc2C(=O)N2Cc3ccccc3C[C@H]2C)n1C [Example 35, N-(4-Hydroxyphenyl)-N,1,2-trimethyl-5-(2-{[(3R)-3-methyl-3,4-dihydroisoquinolin-2(1H)-yl]carbonyl}-4-{[(phenoxyacetyl)amino]methyl}phenyl)-1H-pyrrole-3-carboxamide]	50	560	–

Further lines, with some results ahead:

IC50 [1] [nM]	SMILES	IC50 ([2]; Homo sapiens, RS4-11, 48 h) [nM]	IC50 [2] [nM]
2.7	Cc1c(C(=O)N(c2ccc(O)cc2)c2cc(C#N)nn2C)cc(-c2cc(Cl)ccc2C(=O)N2Cc3ccccc3C[C@H]2CN2CCOCC2)n1C [Example 450, 5-(5-Chloro-2-{[(3S)-3-(morpholin-4-ylmethyl)-3,4-dihydroisoquinolin-2(1H)-yl]carbonyl}phenyl)-N-(3-cyano-1-methyl-1H-pyrazol-5-yl)-N-(4-hydroxyphenyl)-1,2-dimethyl-1H-pyrrole-3-carboxamide hydrochloride]	53.2	–
9.2	Cc1c(C(=O)N(c2ccc(O)cc2)c2cnn(C)c2)cc(-c2ccccc2C(=O)N2Cc3ccccc3C[C@H]2CN2CCOCC2)n1C [Example 422, N-(4-Hydroxyphenyl)-1,2-dimethyl-N-(1-methyl-1H-pyrazol-4-yl)-5-(2-{[(3S)-3-(morpholin-4-ylmethyl)-3,4-dihydroisoquinolin-2(1H)-yl]carbonyl}phenyl)-1H-pyrrole-3-carboxamide hydrochloride]	101	–
3	COc1ccc(-c2cc(C(=O)N(c3ccc(O)cc3)c3cc(C#N)n(C)c3C)c(C)n2C)c(C(=O)N2Cc3ccccc3C[C@H]2CN2CCOCC2)c1 [Example 417, N-(5-Cyano-1,2-dimethyl-1H-pyrrol-3-yl)-N-(4-hydroxyphenyl)-5-(4-methoxy-2-{[(3S)-3-(morpholin-4-ylmethyl)-3,4-dihydroisoquinolin-2(1H)-yl]carbonyl}phenyl)-1,2-dimethyl-1H-pyrrole-3-carboxamide hydrochloride]	11	–
4.7	Cc1c(C(=O)N(c2ccc(O)cc2)c2cnn(C)c2)cc(-c2cc3c(cc2C(=O)N2Cc4ccccc4C[C@H]2CN2CCOCC2)OCCO3)n1C [Example 21, N-(4-Hydroxyphenyl)-1,2-dimethyl-N-(1-methyl-1H-pyrazol-4-yl)-5-(7-{[(3S)-3-(morpholin-4-ylmethyl)-3,4-dihydroisoquinolin-2(1H)-yl]carbonyl}-2,3-dihydro-1,4-benzodioxin-6-yl)-1H-pyrrole-3-carboxamide hydrochloride]	79.9	–
8.3	Cc1nn(C)cc1N(C(=O)c1cc(-c2cc(F)ccc2C(=O)N2Cc3ccccc3C[C@H]2CN2CCOCC2)n(C)c1C)c1ccc(O)cc1 [Example 452, N-(1,3-Dimethyl-1H-pyrazol-4-yl)-5-(5-fluoro-2-{[(3S)-3-(morpholin-4-ylmethyl)-3,4-dihydroisoquinolin-2(1H)-yl]carbonyl}phenyl)-N-(4-hydroxyphenyl)-1,2-dimethyl-1H-pyrrole-3-carboxamide hydrochloride]	112	–
11.7	Cc1c(C(=O)N(c2ccc(O)cc2)c2cnn(C3COC3)c2)cc(-c2cc(F)ccc2C(=O)N2Cc3ccccc3C[C@H]2CN2CCOCC2)n1C [Example 423, 5-(5-Fluoro-2-{[(3S)-3-(morpholin-4-ylmethyl)-3,4-dihydroisoquinolin-2(1H)-yl]carbonyl}phenyl)-N-(4-hydroxyphenyl)-1,2-dimethyl-N-[1-(oxetan-3-yl)-1H-pyrazol-4-yl]-1H-pyrrole-3-carboxamide]	344	–
6.2	COc1ccc(C(=O)N2Cc3ccccc3C[C@H]2CN2CCOCC2)c(-c2cc(C(=O)N(c3ccc(O)cc3)c3cnn(C)c3)c(C)n2C)c1 [Example 24, N-(4-Hydroxyphenyl)-5-(5-methoxy-2-{[(3S)-3-(morpholin-4-ylmethyl)-3,4-dihydroisoquinolin-2(1H)-yl]carbonyl}phenyl)-1,2-dimethyl-N-(1-methyl-1H-pyrazol-4-yl)-1H-pyrrole-3-carboxamide hydrochloride]	79.1	–
10.9	Cc1c(C(=O)N(c2ccc(O)cc2)c2ccc(F)cc2)cc(-c2cc(Cl)ccc2C(=O)N2Cc3ccccc3C[C@H]2CN2CCOCC2)n1C [Example 33, 5-(5-Chloro-2-{[(3S)-3-(morpholin-4-ylmethyl)-3,4-dihydroisoquinolin-2(1H)-yl]carbonyl}phenyl)-N-(4-fluorophenyl)-N-(4-hydroxyphenyl)-1,2-dimethyl-1H-pyrrole-3-carboxamide hydrochloride]	57.8	–

From US9108983B2, “Pyrrole compounds, a process for their preparation and pharmaceutical compositions containing them” (LES LABORATOIRES SERVIER, priority 2013, dated 2015)
